Where two headings read alike, the source gives them in different places.
Legend:
[1] = tested on: MCF-7 (Breast); test: MTT cell proliferation assay, MCF-7; assay type: cell-based, human; settings: read-out: IC50 μM MCF-7 (Breast)
Method: (§1) Cell Culture: The human breast cancer epithelial cell lines MDA-MB-231 (HTB-26™), MCF-7 (HTB-22™), colon cancer cell lines HCT 116 (CCL-247™) and […] (CCL-244™) were obtained from American Type Culture Collection (ATCC). Additionally, KAIMRC1 cell line was isolated and developed at KAIMRC from a breast cancer patient. All the cells were grown in advanced DMEM containing 10% fetal bovine serum (FBS), 50 units/mL penicillin, 50 ug/mL streptomycin (GIBCO), and 2 mM glutamine (GIBCO). The cells were cultured at 37° C. in a humidified 5% CO2 atmosphere for 24 hours before experimental procedure.
(§2) Cell Proliferation Assay (MTT): Cells were plated on flat-bottom 96-well plates at a density of 5×10^3 cells/well in 100 μL growth medium. Serial dilutions of the compounds, ranging from 100 nM-100 μM were tested on the cells in triplicates. Additional rows with only the compounds and only cells were added in order to account for the compounds and cells effect. Cells were incubated with compounds for 48 h at 37° C. with 5% CO2.
(§3) After 48 h treatment, the cell viability was determined using the MTT viability assay. Briefly, 5 μL of MTT reagent (5 mg/mL stock) per 95 μl cell culture medium was added to each well and incubated for 3 h at 37° C. with 5% CO2. After 3 h the supernatant was removed, and the MTT formazan crystals were dissolved in dimethyl sulfoxide (DMSO) by shaking the plate for 30 mins at RT. The absorbance was measured on Molecular Devices microplate absorbance reader at 560 nm. The percentage of viable cells was calculated as the ratio of the absorbance of the treated group divided by the absorbance of the control group multiplied by 100. The absorbance from the untreated control cells was set as 100% viable. IC50 values were calculated from dose-response curves generated using a polynomial dose-response approximation using Prism 8 software. The IC50 values (µM) obtained for the compounds of present invention on MDA-MD 231 (breast), MCF-7 (breast), KAIMRC1 (breast), HCT116 (colon) and HCT8 (colon) are summarized in Table 5 and 6.

[2] = tested on: HCT116 (Colon); test: MTT cell proliferation assay, HCT116; assay type: cell-based, human; settings: read-out: IC50 μM HCT116 (Colon)
Method: as §1, §2, §3

[3] = tested on: MDA MB-231 cell line (Breast); test: MTT cell proliferation assay, MDA MB-231; assay type: cell-based, human; settings: read-out: IC50 μM MDA MB-231 (Breast)
Method: as §1, §2, §3

[4] = tested on: KAIMRC1 (Breast); test: MTT cell proliferation assay, KAIMRC1; assay type: cell-based, human; settings: read-out: IC50 μM KAIMRC1 (Breast)
Description: The immortalized cell lines included in the testing panel of this disclosure are MCF7 (a breast cancer cell line), MCF10 (immortalized human breast epithelial cells), MDA-MB231 (an epithelial, human breast cancer cell line that was established from a pleural effusion of a patient with a metastatic mammary adenocarcinoma), KAIMRC1 (a naturally immortalized human breast carcinoma cell line), KAIMRC2 (a naturally immortalized breast cancer cell line). The primary cells available for lead toxicity assays are, without limitation: hepatocytes (supplied by Xenotech, Bioscience Lonza, Accegen, Biocompare, Gibco, Zen-Bio, Takarabio, AxolBio, Creative Bioarray), cardiomyocytes (supplied by Cellartis, Axolbio, Cedarlanelabs, EMD Millipore, Takara Bio, Neuromics, AcceGene), primary neurons (AcceGen, Cellapplications, Neuromics, Biocompare, AxolBio, BrainXcell), endothelial lining (Thermofisher, Accegen, Biocompare, Promocell, ATCC). Multicellular 3D organoids raised by differentiating iPSC (induced pluripotent stem cells) are provided by Sigma Aldrich (the iPSC cell lines, organoids), Tocris Bioscience, Thermofisher, Stemcell Technologies, Takara Bio, Emulatebio (Human organ chips), Prodolabs.
as §1, §2, §3

[5] = tested on: MDA-MD 231 (breast), MCF-7 (breast), KAIMRC1 (breast), HCT116 (colon) and HCT8 (colon); test: MTT assay, review of Tables 5 and 6 (whole cell line panel); assay type: cell-based, human; settings: review of Tables 5 and 6, MTT IC50
Method: as §1, §2, §3
The presence of nitrogen in certain positions of quinoline and/or iso-quinoline ring is the structure-activity determinant, and the subsequent variations in the nitrogen positions and substituents in this ring produce stronger leads by the methods of combinatorial expansion disclosed herein.

[6] = tested on: ThP1 (leukemia); test: Cell Titre Glo luminescent cell viability assay, ThP1; assay type: cell-based; settings: Cell Titre Glo luminescence, normalized to DMSO controls
Description: (§4) Another embodiment discloses Titer Glo Assay for the characterization of the synthesized compounds. The CellTiter-Glo® Luminescent Cell Viability Assay is a homogeneous method of determining the number of viable cells in culture based on quantitation of the ATP present, an indicator of metabolically active cells. The CellTiter-Glo® Assay is designed for use with multiwell formats, making it ideal for automated high-throughput screening (HTS), cell proliferation, and cytotoxicity assays. The homogeneous assay procedure involves adding the single reagent (CellTiter-Glo® Reagent) directly to cells cultured in serum-supplemented medium. Cell washing, removal of medium, and multiple pipetting steps are not required. The system detects as few as 15 cells/well in a 384-well format in 10 minutes after adding reagent and mixing.
as §1
(§5) Cell Titre Glo assay was performed on two Leukemia cell lines, HL 60 and ThP1 as per manufacturer's (Promega) recommendations. Briefly, plates were prepared as mentioned in cell culture section. 100 µL of Cell Titre Glo was added directly to the wells. After incubation for 30 minutes at room temperature, luminescence was measured using the Envision plate reader (Perkin Elmer). Luminescence readings were normalized to averaged DMSO controls and expressed as relative percentage. IC50 values were calculated from dose-response curves generated using a polynomial dose-response approximation using Prism 8 software.

[7] = tested on: HCT 8 (Colon); test: MTT cell proliferation assay, HCT 8; assay type: cell-based, human; settings: read-out: IC50 μM HCT 8 (Colon)
Method: as §1, §2, §3

[8] = tested on: HL 60 (leukemia); test: Cell Titre Glo luminescent cell viability assay, HL 60; assay type: cell-based; settings: Cell Titre Glo luminescence, normalized to DMSO controls
Description: as §4, §1, §5

[9] = Homo sapiens, MDA-MB-231, MTT, 48 h treatment, medium with 10% FBS
[10] = Homo sapiens, MCF7, MTT, 48 h treatment, medium with 10% FBS
[11] = Homo sapiens, HCT-116, MTT, 48 h treatment, medium with 10% FBS
[12] = Homo sapiens, MTT, 48 h treatment, medium with 10% FBS
[13] = Homo sapiens, HCT-8, MTT, 48 h treatment, medium with 10% FBS
[14] = MTT, 48 h treatment, medium with 10% FBS

Row | SMILES | IC50 [3, 9] [µM] | IC50 [1, 10] [µM] | IC50 [2, 11] [µM] | IC50 [4, 12] [µM] | IC50 [7, 13] [µM] | further results
1 | O=C1NC(=O)C(=C/C=C/c2c3ccccc3cc3ccccc23)C(=O)N1 [Example 1, 5-(3-ANTHRACEN-9-YL-ALLYLIDENE)-PYRIMIDINE-2,4,6-TRIONE] |  |  |  |  |  | IC50 ([1]; Homo sapiens, MCF7, 48 h): 10.5 µM; IC50 ([2]; Homo sapiens, HCT-116, 48 h): 27.1 µM; IC50 ([3]; Homo sapiens, MDA-MB-231, 48 h): 52 µM
2 | CCC1(C)OC(=O)C(=C/C=C/c2c3ccccc3cc3ccccc23)C(=O)O1 (stereo not drawn) [Example 2, 5-(3-ANTHRACEN-9-YL-ALLYLIDENE)-2-ETHYL-2-METHYL-[1,3]DIOXANE-4,6-DIONE] | 25.2 |  |  |  |  | 
3 | O=C1NC(=O)C(=C/C=C/c2ccnc3ccccc23)C(=O)N1 [Example 6, 5-(3-QUINOLIN-4-YL-ALLYLIDENE)-PYRIMIDINE-2,4,6-TRIONE] |  |  |  |  |  | IC50 ([1]; Homo sapiens, MCF7, 48 h): 31.9 µM; IC50 ([4]; Homo sapiens, 48 h): 18 µM; IC50 ([3]; Homo sapiens, MDA-MB-231, 48 h): 21.2 µM
4 | CCC1(C)OC(=O)C(=C/C=C/c2ccncc2)C(=O)O1 (stereo not drawn) [Example 9, 2-ETHYL-2-METHYL-5-(3-PYRIDIN-4-YL-ALLYLIDENE)-[1,3]DIOXANE-4,6-DIONE] | 5.03 | 24.2 | 3.54 | 21.6 | 2.17 | range of activity compared with Mitoxanthrone [5]: range of activity that begins to overlap with that of Mitoxanthrone; IC50 ([6]; Homo sapiens, THP-1): 2.81 µM
5 | CC1(C)OC(=O)C(=CC=Cc2cncc3ccccc23)C(=O)O1 [Example 10, 5-(3-ISOQUINOLIN-4-YL-ALLYLIDENE)-2,2-DIMETHYL-[1,3]DIOXANE-4,6-DIONE] |  |  |  | 4.45 | 1.37 | range of activity compared with Mitoxanthrone [5]: range of activity that begins to overlap with that of Mitoxanthrone; IC50 ([6]; Homo sapiens, THP-1): 1.51 µM
6 | CC1(C)OC(=O)C(=CC=Cc2ccnc3ccccc23)C(=O)O1 [Example 11, 2,2-DIMETHYL-5-(3-QUINOLIN-4-YL-ALLYLIDENE)-[1,3]DIOXANE-4,6-DIONE] | 14.1 | 19.7 | 10.4 | 33.2 | 14.1 | IC50 ([8]; Homo sapiens, HL-60): 1.86 µM; IC50 ([6]; Homo sapiens, THP-1): 1.68 µM
7 | CCCC1(C)OC(=O)C(=CC=Cc2ccnc3ccccc23)C(=O)O1 (stereo not drawn) [Example 14, 2-METHYL-2-PROPYL-5-(3-QUINOLIN-4-YL-ALLYLIDENE)-[1,3]DIOXANE-4,6-DIONE] | 15.5 | 15.2 | 15.4 | 27.6 | 18.9 | 
8 | O=C1OC2(CCC2)OC(=O)C1=CC=Cc1ccnc2ccccc12 [Example 15, 7-(3-QUINOLIN-4-YL-ALLYLIDENE)-5,9-DIOXA-SPIRO[3.5]NONANE-6,8-DIONE] | 7.84 |  |  |  |  | 
9 | O=C1OC2(CCC2)OC(=O)C1=CC=Cc1cncc2ccccc12 [Example 16, 7-(3-ISOQUINOLIN-4-YL-ALLYLIDENE)-5,9-DIOXA-SPIRO[3.5]NONANE-6,8-DIONE] |  | 5.44 | 8.04 | 8.09 | 6.01 | 
10 | O=C1OC2(CCCCC2)OC(=O)C1=CC=Cc1ccnc2ccccc12 [Example 17, 3-(3-QUINOLIN-4-YL-ALLYLIDENE)-1,5-DIOXA-SPIRO[5.5]UNDECANE-2,4-DIONE] | 13 | 17.3 | 13.7 | 19.6 | 12.9 | 
11 | CC1(C)OC(=O)C(=CC=Cc2cccc3ccccc23)C(=O)O1 [Example 18, 2,2-DIMETHYL-5-(3-NAPHTHALEN-1-YL-ALLYLIDENE)-[1,3]DIOXANE-4,6-DIONE] |  |  |  | 6.54 | 5.78 | 
12 | CCC1(C)OC(=O)C(=CC=Cc2cccc3ccccc23)C(=O)O1 (stereo not drawn) [Example 19, 2 ETHYL,2-METHYL-5-(3-NAPHTHALEN-1-YL-ALLYLIDENE)-[1,3]DIOXANE-4,6-DIONE] | 5.92 | 5.82 | 2.44 | 5.82 | 2.95 | 
13 | O=C1OC2(CCC2)OC(=O)C1=CC=Cc1cccc2ccccc12 [Example 20, 7-(3-NAPHTHALEN-1-YL-ALLYLIDENE)-5,9-DIOXA-SPIRO[3.5]NONANE-6,8-DIONE] |  | 4.24 | 4.84 | 11.9 | 3.87 | IC50 ([8]; Homo sapiens, HL-60): 2.41 µM; IC50 ([6]; Homo sapiens, THP-1): 2.04 µM
14 | CCC1(C)OC(=O)C(=CC=Cc2ccc(OC)c3ccccc23)C(=O)O1 (stereo not drawn) [Example 21, 2-ETHYL-5-[3-(4-METHOXY-NAPHTHALEN-1-YL)-ALLYLIDENE]-2-METHYL-[1,3]DIOXANE-4,6-DIONE] | 17 |  | 50 |  |  | 
15 | CC1(C)OC(=O)C(=CC#Cc2cccc3ccccc23)C(=O)O1 [Example 28, 2,2-DIMETHYL-5-(3-NAPHTHALEN-1-YL-PROP-2-YNYLIDENE)-[1,3]DIOXANE-4,6-DIONE] |  |  |  |  |  | IC50 ([4]; Homo sapiens, 48 h): 7.36 µM; IC50 ([7]; Homo sapiens, HCT-8, 48 h): 8.82 µM
16 | CC1(C)OC(=O)C(=CC=Cc2cccc3occc23)C(=O)O1 [Example 32, 5-(3-BENZOFURAN-4-YL-ALLYLIDENE)-2,2-DIMETHYL-[1,3]DIOXANE-4,6-DIONE] | 7.5 |  | 34.2 |  |  | 
17 | O=C1c2c(O)ccc(O)c2C(=O)c2c(NCCNCCO)ccc(NCCNCCO)c21 [Mitoxanthrone, reference compound] |  |  |  |  |  | IC50 [8]: 0.7 µM; IC50 [1, 14]: 3.61 µM; IC50 [2, 14]: 0.71 µM; IC50 [6]: 0.22 µM; IC50 [4, 14]: 10.1 µM; IC50 [7, 14]: 1.25 µM; IC50 [3, 14]: 0.51 µM

From US11161823B2, “Anticancer 1,3-dioxane-4,6-dione derivatives and method of combinatorial synthesis thereof” (National Guard Health Affairs, priority 2019, dated 2021)
